# Tested on: not given
# Assay: not given
# Conditions: not given
row,melting point,SMILES
1,225 to 228 °C,O=C(NCc1cccc(F)c1)Nc1c(Cl)cc(Cl)c2ccc(O)cc12 [Example 1-30]
2,> 300 °C,O=C(Nc1ccc2c(c1)CCC2)Nc1c(Cl)cc(Cl)c2ccc(O)cc12 [Example 4-32]
3,258 to 259 °C,CNc1ccc2ccc(Cl)c(NC(=O)Nc3ccc(Cl)c(C(F)(F)F)c3)c2c1 [Example 1-77]
4,195 °C,O=C(Nc1cccc2c1C(=O)c1ccccc1-2)Nc1c(Cl)cc(Cl)c2ccc([O-])cc12.[K+]
5,210 °C,O=C(Nc1ccc(Cl)c(C(F)(F)F)c1)Nc1c(Cl)cc(CO)c2ccc(O)cc12 [Example 1-82]
6,190 °C,Cc1cc(NC(=O)Nc2c(Cl)cc(Cl)c3ccc([O-])cc23)ccc1Cl.[K+]
7,188 °C,O=C(Nc1ccc(N2CCOCC2)c(Cl)c1)Nc1c(Cl)cc(Cl)c2ccc([O-])cc12.[K+]
8,290 to 291 °C (dec.),O=C(Nc1ccc2c(c1)C(=O)OC2)Nc1c(Cl)cc(Cl)c2ccc(O)cc12 [Example 4-35]
9,260 °C,CC(=O)Oc1ccc2c(Cl)cc(Cl)c(NC(=O)Nc3cccc(-c4ccc(C)c(Cl)c4)c3)c2c1 [Example 3-4]
10,253 to 255 °C,O=C(Nc1ccc(Cl)cc1)Nc1c(Cl)cc(Cl)c2ccc(O)cc12 [Example 1-21]
11,174 °C (dec.),O=C(Nc1cccc(-c2ccc(Cl)c(F)c2)c1)Nc1c(Cl)cc(Cl)c2ccc([O-])cc12.[K+]
12,180 °C,"CC(=O)Oc1ccc2c(Cl)cc(Cl)c(NC(=O)Nc3cccc(-c4ccccc4Cl)c3)c2c1 [Example 3-1, 5,7-Dichloro-8-({[(2′-chloro-1,1′-biphenyl-3-yl)amino]carbonyl}amino)-2-naphthyl acetate]"
13,230 °C (dec.),O=C(Nc1ccc2c(c1)CCCC2=O)Nc1c(Cl)cc(Cl)c2ccc(O)cc12 [Example 4-40]
14,213 °C (dec.),CC(=O)Oc1ccc2c(Cl)cc(Cl)c(NC(=O)Nc3ccc4c(c3)C(=O)c3ccccc3-4)c2c1 [Example 3-10]
15,242 to 243 °C,O=C(Nc1cccc(Cl)c1)Nc1c(Cl)ccc2ccc(O)cc12 [Example 1-2]
16,> 300 °C,O=C(Nc1cc(C(F)(F)F)ccc1Cl)Nc1c(Cl)cc(Cl)c2ccc(O)cc12 [Example 1-41]
17,250 to 252 °C (dec.),Cc1cc(NC(=O)Nc2c(Cl)cc(Cl)c3ccc(O)cc23)ccc1F [Example 4-45]
18,214.5 °C,"CC(C)(C)c1cc(NC(=O)Nc2c(Br)cc(Br)c3ccc(O)cc23)no1 [Example 5-1, N-(5-tert-Butyl-3-isoxazolyl)-N′-(2,4-dibromo-7-hydroxy-1-naphthyl)urea]"

# Target: T1, human VR1 (Homo sapiens, UniProt Q8NER1)
# T1 construct: expressed in transfected cells
# T1 sequence (Q8NER1 whole entry): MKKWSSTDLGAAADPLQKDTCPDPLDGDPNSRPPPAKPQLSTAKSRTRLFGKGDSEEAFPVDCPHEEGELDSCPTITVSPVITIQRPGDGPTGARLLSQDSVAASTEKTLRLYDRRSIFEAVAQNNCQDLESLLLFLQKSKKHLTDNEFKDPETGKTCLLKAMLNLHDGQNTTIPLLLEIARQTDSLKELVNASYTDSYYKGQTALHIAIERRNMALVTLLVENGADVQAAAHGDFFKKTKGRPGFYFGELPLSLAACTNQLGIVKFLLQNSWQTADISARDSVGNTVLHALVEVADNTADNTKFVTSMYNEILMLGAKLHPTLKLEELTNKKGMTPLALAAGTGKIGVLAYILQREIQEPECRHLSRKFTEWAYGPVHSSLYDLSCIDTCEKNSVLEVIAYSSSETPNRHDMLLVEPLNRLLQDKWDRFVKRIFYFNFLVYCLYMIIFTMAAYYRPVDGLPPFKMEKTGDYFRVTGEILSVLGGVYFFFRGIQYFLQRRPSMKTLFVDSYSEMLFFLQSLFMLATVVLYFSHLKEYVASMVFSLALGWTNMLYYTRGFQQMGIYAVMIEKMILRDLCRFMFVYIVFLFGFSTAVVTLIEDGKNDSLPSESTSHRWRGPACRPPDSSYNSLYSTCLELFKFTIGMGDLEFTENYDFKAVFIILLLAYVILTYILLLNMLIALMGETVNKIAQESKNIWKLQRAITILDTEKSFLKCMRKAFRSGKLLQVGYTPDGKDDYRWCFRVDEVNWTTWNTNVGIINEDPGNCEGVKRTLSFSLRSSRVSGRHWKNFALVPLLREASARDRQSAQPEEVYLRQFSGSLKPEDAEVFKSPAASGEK
# Assay: Capsaicin-induced Ca2+ influx in the human VR1-transfected CHO cell line (Assay 1)
# Assay type: cell-based
# Conditions: capsaicin-induced Ca2+ flux; compounds or the salt thereof (e.g., potassium salt); purity about 40 to 90%
# From the text: [Measurement of Capsaicin-induced Ca^2+ Influx in the Human VR1-transfected CHO Cell Line] (Assay 1)
# (1) Establishment of the human VR1-CHOluc9aeq cell line
# Human vanilloid receptor (hVR1) cDNA was cloned from libraries of axotomized dorsal root ganglia (WO2000/29577). The cloned hVR1 cDNA was constructed with pcDNA3 vector and transfected into a CHOluc9aeq cell line. The cell line contains aequorin and CRE-luciferase reporter genes as read-out signals. The transfectants were cloned by limiting dilution in selection medium (DMEM/F12 medium (Gibco BRL) supplemented with 10% FCS, 1.4 mM Sodium pyruvate, 20 mM HEPES, 0.15% Sodium bicarbonate, 100 U/ml penicillin, 100 μ/ml streptomycin, 2 mM glutamine, non-essential amino acids and 2 mg/ml G418). Ca^2+ influx was examined in the capsaicin-stimulated clones. […] The human VR1-CHOluc9aeq cells were maintained in the selection medium and passaged every 3-4 days at 1-2.5×10^5 cells/flask ([…])
# (2) Measurement of Ca^2+ influx using FDSS-3000
# Human VR1-CHOluc9aeq cells were suspended in a culture medium which is the same as the selection medium except for G418 and seeded at a density of 1,000 cells per well into 384-well plates (black walled clear-base/Nalge Nunc International). Following the culture for 48 hrs the medium was changed to 2 μM Fluo-3 AM (Molecular Probes) and 0.02% Puronic F-127 in assay buffer (Hank's balanced salt solution (HBSS), 17 mM HEPES (pH7.4), 1 mM Probenecid, 0.1% BSA) and the cells were incubated for 60 min at 25° C. After washing twice with assay buffer the cells were incubated with a test compound or vehicle for 20 min at 25° C. Mobilization of cytoplasmic Ca^2+ was measured by FDSS-3000 (λex=488 nm, λem=540 nm/Hamamatsu Photonics) for 60 sec after the stimulation with 10 nM of capsaicin (Nacalai Tesque). Integral R of the fluorescence changes was calculated in the samples treated with a test compound and vehicle respectively. Inhibitory effect of the compound was calculated by a comparison of the integral R values.
row,IC50 [nM],SMILES
1,≤ 10,"O=C(Nc1ccc(Cl)c(C(F)(F)F)c1)Nc1c(Cl)cc(Cl)c2ccc(O)cc12 [N-[4-chloro-3-(trifluoromethyl)phenyl]-N′-(2,4-dichloro-7-hydroxy-1-naphthyl)urea]"
2,≤ 10,Cc1ccc(NC(=O)Nc2ccc(Cl)c(C(F)(F)F)c2)c2cc(O)ccc12 [N-[4-chloro-3-(trifluoromethyl)phenyl]-N′-(7-hydroxy-4-methyl-1-naphthyl)urea]
3,≤ 10,O=C(Nc1ccc(C(F)(F)F)cc1)Nc1cccc2ccc(O)cc12 [N-(7-hydroxy-1-naphthyl)-N′-[4-(trifluoromethyl)phenyl]urea]
4,≤ 10,O=C(Nc1ccc(Cl)c(C(F)(F)F)c1)Nc1c(Cl)ccc2ccc(O)cc12 [N-(2-chloro-7-hydroxy-1-naphthyl)-N′-[4-chloro-3-(trifluoromethyl)phenyl]urea]
5,≤ 10,O=C(Nc1cccc(Oc2ccccc2)c1)Nc1cccc2ccc(O)cc12 [N-(7-hydroxy-1-naphthyl)-N′-(3-phenoxyphenyl)urea]
6,≤ 10,"O=C(Nc1ccc(F)c(C(F)(F)F)c1)Nc1c(Cl)cc(Cl)c2ccc(O)cc12 [N-(2,4-dichloro-7-hydroxy-1-naphthyl)-N′-[4-fluoro-3-(trifluoromethyl)phenyl]urea]"
7,≤ 10,"O=C(Nc1ccc2ccccc2c1)Nc1c(Cl)cc(Cl)c2ccc(O)cc12 [N-(2,4-dichloro-7-hydroxy-1-naphthyl)-N′-(2-naphthyl)urea]"
8,≤ 10,O=C(Nc1ccc(Oc2ccccc2)cc1)Nc1cccc2ccc(O)cc12 [N-(7-hydroxy-1-naphthyl)-N′-(4-phenoxyphenyl)urea]
9,≤ 10,"O=C(Nc1cccc(-c2ccccc2)c1)Nc1c(Cl)ccc2ccc(O)cc12 [N-(1,1′-biphenyl-3-yl)-N′-(2-chloro-7-hydroxy-1-naphthyl)urea]"
10,≤ 10,O=C(Nc1ccc(Oc2ccc(Cl)cc2)cc1)Nc1cccc2ccc(O)cc12 [N-[4-(4-chlorophenoxy)phenyl]-N′-(7-hydroxy-1-naphthyl)urea]
11,≤ 10,O=C(NCc1ccc(Br)cc1)Nc1c(Cl)ccc2ccc(O)cc12 [N-(4-bromobenzyl)-N′-(2-chloro-7-hydroxy-1-naphthyl)urea]
12,≤ 10,"O=C(Nc1cccc(-c2ccccc2Cl)c1)Nc1c(Cl)cc(Cl)c2ccc(O)cc12 [N-(2′-chloro-1,1′-biphenyl-3-yl)-N′-(2,4-dichloro-7-hydroxy-1-naphthyl)urea]"
13,≤ 10,"O=C(Nc1cccc(-c2ccccc2)c1)Nc1cccc2ccc(O)cc12 [N-(1,1′-biphenyl-3-yl)-N′-(7-hydroxy-1-naphthyl)urea]"
14,≤ 10,Cc1cc(Cl)c(NC(=O)Nc2ccc(Cl)c(C(F)(F)F)c2)c2cc(O)ccc12 [N-(2-chloro-7-hydroxy-4-methyl-1-naphthyl)-N′-[4-chloro-3-(trifluoromethyl)phenyl]urea]
15,≤ 10,"O=C(Nc1ccc(Cl)c(C(F)(F)F)c1)Nc1c(Br)cc(Br)c2ccc(O)cc12 [N-[4-chloro-3-(trifluoromethyl)phenyl]-N′-(2,4-dibromo-7-hydroxy-1-naphthyl)urea]"
16,≤ 10,O=C(Nc1ccc(Cl)c(C(F)(F)F)c1)Nc1c(Cl)cc(Br)c2ccc(O)cc12 [N-(4bromo-2-chloro-7-hydroxy-1-naphthyl)N′-[4-chloro-3-(trifluoromethyl)phenyl]urea]
17,≤ 10,"O=C(Nc1cccc(C(F)(F)F)c1)Nc1c(Cl)cc(Cl)c2ccc(O)cc12 [N-(2,4-dichloro-7-hydroxy-1-naphthyl)-N′-[3-(trifluoromethyl)phenyl]urea]"
18,≤ 10,"CCOC(=O)c1cccc(NC(=O)Nc2c(Cl)cc(Cl)c3ccc(O)cc23)c1 [ethyl 3-({[(2,4-dichloro-7-hydroxy-1-naphthyl)amino]carbonyl}amino)benzoate]"
19,≤ 10,"O=C(Nc1cccc(Cl)c1)Nc1c(Br)cc(Br)c2ccc(O)cc12 [N-(3-chlorophenyl)-N′-(2,4-dibromo-7-hydroxy-1-naphthyl)urea]"

# — patent US20040259875A1, “Amine derivatives” (priority 2001, published 2004)
